Converted amounts (≈) assume the structure as drawn.
Assay: Celecoxib solubility in PBS with Tween 80
Assay type: physicochemical
Conditions: PBS with 0.2% Tween 80, aqueous with cosolvent or surfactant or cyclodextrin

solubility: 100 to 200 µg/mL (≈ 262 to 524 µM)
Compound: Cc1ccc(-c2cc(C(F)(F)F)nn2-c2ccc(S(N)(=O)=O)cc2)cc1 [celecoxib]

Source: patent US9795679B2, “Biodegradable compositions suitable for controlled release” (INGELL TECHNOLOGIES HOLDING B.V., priority 2011, dated 2017)
